Reference: patent US6689773B2, “Uracil substituted phenyl sulfamoyl carboxamides” (BASF Aktiengesellschaft, priority 2000, dated 2004)

What was measured:
Type in all cases: in vivo
[1] = test system: ABUTH, Velvetleaf, Abutilon theophrasti, Medic.; assay: Preemergence herbicidal evaluation (Example 148); conditions: rating scale 0-9, two to four weeks after treatment
Method in brief: (§1)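 Seeds mixed with potting soil and planted in cups, then sprayed preemergence with aqueous acetone solution of test compound at about 0.125 to 0.250 kg per hectare. Kept under greenhouse conditions; visual rating versus untreated control 2–4 weeks after treatment, scoring stand, vigor, malformation, size and chlorosis. Repeat tests averaged.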

[2] = test system: IPOHE, Morningglory, Ivyleaf, Ipomoea hederacea, (L)Jacq.; assay: Preemergence herbicidal evaluation (Example 148); conditions: rating scale 0-9, two to four weeks after treatment
Method in brief: as §1

[3] = test system: ALOMY, Blackgrass, Alopecurus myosuroides; assay: Preemergence herbicidal evaluation (Example 148); conditions: rating scale 0-9, two to four weeks after treatment
Method in brief: as §1

[4] = test system: TRZAW, Winter wheat, Tritium Aestivum, L. (Winter); assay: Preemergence herbicidal evaluation (Example 148); conditions: rating scale 0-9, two to four weeks after treatment
Method in brief: as §1

[5] = test system: ECHCG, Barnyardgrass, Echinochloa crusgalli, (L.)Beau; assay: Preemergence herbicidal evaluation (Example 148); conditions: rating scale 0-9, two to four weeks after treatment
Method in brief: as §1

[6] = test system: XANST, Cocklebur, Xanthium strumariam; assay: Preemergence herbicidal evaluation (Example 148); conditions: rating scale 0-9, two to four weeks after treatment
Method in brief: as §1

[7] = test system: CHEAL, Lambsquarters, Chenopodium album, L. Common; assay: Preemergence herbicidal evaluation (Example 148); conditions: rating scale 0-9, two to four weeks after treatment
Method in brief: as §1

[8] = test system: AMBEL, Ragweed, Common, Ambrosia artemiisifolia, L.; assay: Preemergence herbicidal evaluation (Example 148); conditions: rating scale 0-9, two to four weeks after treatment
Method in brief: as §1

[9] = test system: DIGSA, Crabgrass, (Hairy) L, Digitaria sanguinalis, (L)Scop; assay: Preemergence herbicidal evaluation (Example 148); conditions: rating scale 0-9, two to four weeks after treatment
Method in brief: as §1

[10] = test system: ZEAMX, Field corn, Zea mays L.; assay: Preemergence herbicidal evaluation (Example 148); conditions: rating scale 0-9, two to four weeks after treatment
Method in brief: as §1

[11] = test system: GLXMA, Soybean, Glycine max, (L.) Merr.; assay: Preemergence herbicidal evaluation (Example 148); conditions: rating scale 0-9, two to four weeks after treatment
Method in brief: as §1

[12] = test system: SETVI, Green foxtail, Setaria viridis, (L.)Beau; assay: Preemergence herbicidal evaluation (Example 148); conditions: rating scale 0-9, two to four weeks after treatment
Method in brief: as §1

[13] = test system: ABUTH, Velvetleaf, Abutilon theophrasti, Medic.; assay: Postemergence herbicidal evaluation (Example 147); conditions: rating scale 0-9, two to three weeks after treatment
Method in brief: (§2)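 ~2-wk seedlings; spray 40 psi; 0.016–0.032 kg/ha a.i. in acetone/water 80/20 + 1.0% methylated seed oil; greenhouse; rated 0–9 visually at 2–3 wk; multiple tests averaged.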

[14] = test system: IPOHE, Morningglory, Ivyleaf, Ipomoea hederacea, (L)Jacq.; assay: Postemergence herbicidal evaluation (Example 147); conditions: rating scale 0-9, two to three weeks after treatment
Method in brief: as §2

[15] = test system: ALOMY, Blackgrass, Alopecurus myosuroides; assay: Postemergence herbicidal evaluation (Example 147); conditions: rating scale 0-9, two to three weeks after treatment
Method in brief: as §2

[16] = test system: TRZAW, Winter wheat, Tritium Aestivum, L. (Winter); assay: Postemergence herbicidal evaluation (Example 147); conditions: rating scale 0-9, two to three weeks after treatment
Method in brief: as §2

[17] = test system: ECHCG, Barnyardgrass, Echinochloa crusgalli, (L.)Beau; assay: Postemergence herbicidal evaluation (Example 147); conditions: rating scale 0-9, two to three weeks after treatment
Method in brief: as §2

[18] = test system: XANST, Cocklebur, Xanthium strumariam; assay: Postemergence herbicidal evaluation (Example 147); conditions: rating scale 0-9, two to three weeks after treatment
Method in brief: as §2

[19] = test system: CHEAL, Lambsquarters, Chenopodium album, L. Common; assay: Postemergence herbicidal evaluation (Example 147); conditions: rating scale 0-9, two to three weeks after treatment
Method in brief: as §2

[20] = test system: AMBEL, Ragweed, Common, Ambrosia artemiisifolia, L.; assay: Postemergence herbicidal evaluation (Example 147); conditions: rating scale 0-9, two to three weeks after treatment
Method in brief: as §2

[21] = test system: DIGSA, Crabgrass, (Hairy) L, Digitaria sanguinalis, (L)Scop; assay: Postemergence herbicidal evaluation (Example 147); conditions: rating scale 0-9, two to three weeks after treatment
Method in brief: as §2

[22] = test system: ZEAMX, Field corn, Zea mays L.; assay: Postemergence herbicidal evaluation (Example 147); conditions: rating scale 0-9, two to three weeks after treatment
Method in brief: as §2

[23] = test system: GLXMA, Soybean, Glycine max, (L.) Merr.; assay: Postemergence herbicidal evaluation (Example 147); conditions: rating scale 0-9, two to three weeks after treatment
Method in brief: as §2

[24] = test system: SETVI, Green foxtail, Setaria viridis, (L.)Beau; assay: Postemergence herbicidal evaluation (Example 147); conditions: rating scale 0-9, two to three weeks after treatment
Method in brief: as §2

## CN(CCC#N)S(=O)(=O)NC(=O)c1cc(-n2c(=O)cc(C(F)(F)F)n(C)c2=O)c(F)cc1Cl [Example 84]
[1]; rate 0.125 kg/ha
  Preemergence herbicidal rating ABUTH: 9.0
[1]; rate 0.25 kg/ha
  Preemergence herbicidal rating ABUTH: 9.0
[2]; rate 0.125 kg/ha
  Preemergence herbicidal rating IPOHE: 9.0
[2]; rate 0.25 kg/ha
  Preemergence herbicidal rating IPOHE: 9.0
[3]; rate 0.125 kg/ha
  Preemergence herbicidal rating ALMOY: 0.0
[3]; rate 0.25 kg/ha
  Preemergence herbicidal rating ALMOY: 1.0
[4]; rate 0.125 kg/ha
  Preemergence herbicidal rating TRZAW: 0.0
[4]; rate 0.25 kg/ha
  Preemergence herbicidal rating TRZAW: 2.0
[5]; rate 0.125 kg/ha
  Preemergence herbicidal rating ECHCG: 5.0
[5]; rate 0.25 kg/ha
  Preemergence herbicidal rating ECHCG: 6.0
[6]; rate 0.125 kg/ha
  Preemergence herbicidal rating XANST: 9.0
[6]; rate 0.25 kg/ha
  Preemergence herbicidal rating XANST: 9.0
[7]; rate 0.125 kg/ha
  Preemergence herbicidal rating CHEAL: 9.0
[7]; rate 0.25 kg/ha
  Preemergence herbicidal rating CHEAL: 9.0
[8]; rate 0.125 kg/ha
  Preemergence herbicidal rating AMBEL: 9.0
[8]; rate 0.25 kg/ha
  Preemergence herbicidal rating AMBEL: 9.0
[9]; rate 0.125 kg/ha
  Preemergence herbicidal rating DIGSA: 7.0
[9]; rate 0.25 kg/ha
  Preemergence herbicidal rating DIGSA: 8.0
[10]; rate 0.125 kg/ha
  Preemergence herbicidal rating ZEAMX: 0.0
[10]; rate 0.25 kg/ha
  Preemergence herbicidal rating ZEAMX: 1.0
[11]; rate 0.125 kg/ha
  Preemergence herbicidal rating GLXMA: 2.0
[11]; rate 0.25 kg/ha
  Preemergence herbicidal rating GLXMA: 7.0
[12]; rate 0.125 kg/ha
  Preemergence herbicidal rating SETVI: 7.0
[12]; rate 0.25 kg/ha
  Preemergence herbicidal rating SETVI: 7.0
[13]; rate 0.016 kg/ha
  Postemergence herbicidal rating ABUTH: 9.0
[13]; rate 0.032 kg/ha
  Postemergence herbicidal rating ABUTH: 9.0
[14]; rate 0.016 kg/ha
  Postemergence herbicidal rating IPOHE: 9.0
[14]; rate 0.032 kg/ha
  Postemergence herbicidal rating IPOHE: 9.0
[15]; rate 0.016 kg/ha
  Postemergence herbicidal rating ALMOY: 1.0
[15]; rate 0.032 kg/ha
  Postemergence herbicidal rating ALMOY: 2.0
[16]; rate 0.016 kg/ha
  Postemergence herbicidal rating TRZAW: 5.0
[16]; rate 0.032 kg/ha
  Postemergence herbicidal rating TRZAW: 5.5
[17]; rate 0.016 kg/ha
  Postemergence herbicidal rating ECHCG: 8.0
[17]; rate 0.032 kg/ha
  Postemergence herbicidal rating ECHCG: 9.0
[18]; rate 0.016 kg/ha
  Postemergence herbicidal rating XANST: 9.0
[18]; rate 0.032 kg/ha
  Postemergence herbicidal rating XANST: 9.0
[19]; rate 0.016 kg/ha
  Postemergence herbicidal rating CHEAL: 7.0
[19]; rate 0.032 kg/ha
  Postemergence herbicidal rating CHEAL: 9.0
[20]; rate 0.016 kg/ha
  Postemergence herbicidal rating AMBEL: 8.0
[20]; rate 0.032 kg/ha
  Postemergence herbicidal rating AMBEL: 9.0
[21]; rate 0.016 kg/ha
  Postemergence herbicidal rating DIGSA: 5.0
[21]; rate 0.032 kg/ha
  Postemergence herbicidal rating DIGSA: 6.0
[22]; rate 0.016 kg/ha
  Postemergence herbicidal rating ZEAMX: 7.0
[22]; rate 0.032 kg/ha
  Postemergence herbicidal rating ZEAMX: 8.0
[23]; rate 0.016 kg/ha
  Postemergence herbicidal rating GLXMA: 7.0
[23]; rate 0.032 kg/ha
  Postemergence herbicidal rating GLXMA: 8.5
[24]; rate 0.016 kg/ha
  Postemergence herbicidal rating SETVI: 7.0
[24]; rate 0.032 kg/ha
  Postemergence herbicidal rating SETVI: 8.0
